Values of other authors as cited in US9161911B2, “Gastric retentive pharmaceutical compositions for treatment and prevention of CNS disorders” (priority 2008, dated 2015).

SMILES	solubility in aqueous media	solubility in water
NC(Cc1ccc(O)c(O)c1)C(=O)O (single isomer, unassigned; (-)) [Levodopa, (−)-L-alpha-amino-beta-(3,4-dihydroxybenzene) propanoic acid]	poorly soluble	slightly soluble (aqueous solubility (measured at 20° C.) in the range of 2% to 10% by weight)
C[C@@](Cc1ccc(O)c(O)c1)(NN)C(=O)O.O [Carbidopa, (−)-L-alpha-hydrazino-alpha-methyl-beta-(3,4-dihydroxybenzene) propanoic acid monohydrate]	poorly soluble	slightly soluble (aqueous solubility (measured at 20° C.) in the range of 2% to 10% by weight)
